Laboratory results taken from patent US20030186946A1, “Suppression of cytotoxic protein conformers” (priority 2002, published 2003).
Like-named read-outs stand apart in the source and are kept apart here.

Columns and labels:
human amylin [1] = target: T1, human amylin (Homo sapiens, UniProt P10997); conditions: 10 μM thioflavin-T
T1 sequence (P10997 34-70 limits assumed): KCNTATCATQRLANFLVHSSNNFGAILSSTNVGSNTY
Experimental: Thioflavin-T binding fluorescent assays. The effects of various polycyclic compounds on islet amyloid formation were measured by fluorescence spectroscopy, using a SpectraMAX Gemini XS Fluorescence Spectrophotometer (Molecular Devices Corporation, Sunnyvale, Calif.). Excitation and emission maxima were set to 450 nm and 510 nm respectively using a cutoff filter at 495 nm. Thioflavin-T binds to amylin fibrils, but not to monomeric amylin (Goldsbury et al., (1999), J. Mol. Biol., 285:33-39). […] The rate of amylin fibril formation was determined by following thioflavin-T fluorescence in the presence or absence of the potential inhibitory drug. […] Background fluorescence by acridine and acridine orange in the absence of amylin was subtracted from the experimental results. The control preparation contained human amylin and thioflavin-T in the absence of drug. The rate of fluorescence enhancement under these conditions was used to compare amylin fibril formation in the absence and presence of the drug. All other experimental conditions were identical.
Tri-prolyl amylin and rat amylin with thioflavin-T were also used as additional controls.
Each data point represents the mean±s.e.m of three separate reactions.
Effect of chlorpromazine on enhancement of thioflavin-Tfluorescence by human amylin (FIG. 2). Chlorpromazine (700 μM) (π) was incubated in 10 mM tris p H 7.4, with monomeric human amylin (70 μM) in the presence of thioflavin-T (10 μM). The fluorescence of the reaction was monitored over 24 hours as described in the methods. […] Each data point represents the mean±s.e.m of three separate reactions.
Effect of selected polycylic compounds on enhancement of thioflavin-Tfluorescence by human amylin (FIG. 3). Acridine, acridine orange, neutral red and methylene blue are selected examples of fused tricyclic ring compounds. […] Compound structures are shown adjacent to the appropriate graph. […] Fluorescence was monitored over 24 h as described in the Methods. A preparation containing human amylin and thioflavin-T only (▪), was included as a comparison in the absence of drug. […] Each data point represents the mean±s.e.m of three independent experiments.

RINm5F cells = experiment: Cytotoxicity assay in RINm5F cells (calcein-AM / ethidium homodimer-1 staining)
Experimental: Cell Culture and Cytotoxicity Assays. RINm5F cells were cultured in RPMI 1640 medium containing 10% fetal bovine serum, 290 μg/mL L-glutamine, 100 IU/mL penicillin and 100 μg/mL streptomycin. Cells were plated at a density of 15×1 cells per well, incubated for 48 h, rinsed with PBS and placed in fresh medium containing Congo red. Freshly prepared human amylin in Milli-Q water, was preincubated with Congo red for 30 min, then added to the cell culture medium to give a final concentration of 30 μM. Cells were treated for 22 h with human amylin in the presence or absence of 100 μM Congo red. Cell viability was determined by double-staining with calcein-AM and ethidium homodimer-1. Green fluorescence of live cells and red fluorescence marking nuclei of dead cells were simultaneously visualized using a Zeiss Axiovert S100 microscope equipped with a Zeiss filter set # 09. Photographs were taken at 400× magnification using a Zeiss AxioCam digital camera.
A. Representative fluorescence micrograph of RINm5F cells treated with 30 μM human amylin for 22 h and stained with calcein-AM and ethidium homodimer-1 to show live cells (green) and dead cells (red). […] B. A representative micrograph of RINm5F cells treated with 30 μM human amylin and 100 μM Congo red stained as above. […] The percentage of live cells was determined for cells treated for 22 h with vehicle; 30 μM human amylin; 30 μM human amylin in the presence of 100 μM Congo red; or 30 μM rat amylin. Experiments were repeated independently 10 times except for human amylin plus Congo red (A+CR) which was repeated five times. Error bars represent the s.e.m of live and dead cell counts over 6-12 fields per condition.

human amylin [2] = target: T1, human amylin; experiment: Circular dichroism assay of amylin conformation; format: biochemical; set-up: Amylin is a 37-residue; C-terminally amidated peptide having a disulfide bridge between the cysteines at residues 2 and 7; purchased Bachem Calif; (Torrance, Calif.); host or cells: chemical synthesis; conditions: for conformation of human amylin (circular dichroism): approximately 4 μM human amylin, 4% HFIP (FIG. 9E)
Experimental: Preparation of monomeric human amylin. Human amylin (batch 0551805) was obtained from Bachem (Torrence, Calif.). Stock solutions of amylin were prepared as described by Padrick and Miranker, 2002. Human amylin was solubilised in 6M guanidine HCL/50 mM potassium phosphate, pH 6.0, and loaded onto a C18 reversed-phase spin column (Harvard Biosciences). The column was then washed sequentially with 10% Acetonitrile, 0.2% trifluoroacetic acid and water. Monomeric amylin was eluted in 100% HFIP (hexafluoroisopropanol). This stock solution of amylin was then used for all Circular Dichroism experiments.
Circular Dichroism Assay. Circular dichroism spectra were measured on a Pi-Star 180 spectrometer (Applied Photophysics, Leatherhead, UK). Measurements were carried out in either 100% HFIP or 100 mM potassium chloride/50 mM potassium phosphate buffer (pH 7.4) and 2.5% HFIP at 25° C. A stock solution of monomeric human amylin was diluted into buffer to a final concentration of 2.5% HFIP and approximately 5 μM amylin to initiate amylin fibril formation. Spectra were collected at 1 nm intervals with a sample period of 25 μs and adaptive sampling of ±0.01 mdeg. Measurements were recorded immediately following addition of the human amylin stock solution to phosphate buffer in the presence or absence of Congo red or amaranth.
Human amylin (100 μg) was purified on a C18 spin column to give a stock solution in 100% HFIP as described in the methods. A spectrum of this stock solution was collected at 1 nm intervals in a 0.1 cm path length quartz cell (FIG. 9B). The stock solution of monomeric amylin in 100% HFIP was diluted to 2.5% HFIP in 100 mM potassium chloride/50 mM potassium phosphate buffer (pH 7.4). Human amylin concentration was approximately 5 μM. A spectrum was collected at 1 nm intervals in a 0.5 cm path length quartz cell in the absence (FIG. 9C) or presence of 20-fold molar excess of Congo red over human amylin (FIG. 9D). The stock solution of monomeric amylin in 100% HFIP was diluted to 4% HFIP in 100 mM potassium chloride/50 mM potassium phosphate buffer (pH 7.4) containing decreasing concentrations of Congo red as indicated in the Figure. Human amylin concentration was approximately 4 μM. Spectra were collected at 1 nm intervals in a 0.1 cm path length quartz cell (FIG. 9E). The stock solution of monomeric amylin in 100% HFIP was diluted to 4% HFIP in 100 mM potassium chloride/50 mM potassium phosphate buffer (pH 7.4) containing 200 μM Amaranth. Human amylin concentration was approximately 4 μM. Spectra were collected at 1 nm intervals in a 0.1 cm path length quartz cell (FIG. 9F).

For Congo red, the “enhancement of thioflavin-T fluorescence by human amylin” value (human amylin [1]; 700 μM compound, 70 μM human amylin, 10 mM tris pH 7.4, over 72 hours (FIG. 1)) was “no increase in fluorescence beyond that of the rat control preparation”, the “enhancement of thioflavin-T fluorescence by human amylin” value (human amylin [1]; 1200 μM compound (20-fold molar excess), 60 μM human amylin, over 24 h (FIG. 3)) was “no increase in thioflavin-T enhanced fluorescence” and the “protection against cytotoxic effects of human amylin” value (RINm5F cells; 30 μM human amylin, 100 μM Congo red (3-fold molar excess), 22 h) was “inhibited the cytotoxic effects of amylin”. For the same substance, the “intrinsic cytotoxicity of compound to RINm5F β cells” value (RINm5F cells; relative molar ratios which produced suppression of amyloid aggregation (low μM)) was “nointrinsic cytotoxic effects”, the “conformation of human amylin (circular dichroism)” value (“conformation of human amylin” below) (human amylin [2]; 0.8 μM Congo red after 1 hr) was “β-sheet” and the “conformation of human amylin” value (human amylin [2]; 0.8 μM Congo red) was “random coil”. The “conformation of human amylin” value (human amylin [2]; 4 μM Congo red) was “α-helix”, the “conformation of human amylin” value (human amylin [2]; 200 μM Congo red) was “α-helix” and the “effect on β-sheet conformer formation of human amylin (circular dichroism)” value (human amylin [2]; 20-fold molar excess of Congo red, approximately 5 μM human amylin, 2.5% HFIP, pH 7.4 (FIG. 9D)) was “prevents formation of β-sheet conformers”. The “time amylin remains stable in α-helical structure” value (human amylin [2]; excess of Congo red) was “at least 24 hr”.
